The results in this text go back to US10112955B2, “Isoindoline, azaisoindoline, dihydroindenone and dihydroazaindenone inhibitors of Mnk1 and Mnk2” (eFFECTOR THERAPEUTICS, INC., priority 2015, dated 2018).

Molecules are shown by their SMILES. pIC50: −log10 of the molar value. Like-named read-outs stand apart in the source and are kept apart here.

Assay [1] has as its system Phosphorylated eIF4E. The experiment in a line: peIF4E Signaling Cellular Assay (CisBio peIF4E HTRF). In kind it is cell-based. To be noted: cells incubated with compound for 2 hrs at 37° C., 12-point curve. As for the experimental part: Phosphorylated eIF4E is assayed using the CisBio peIF4E HTRF® assay kit (CisBio, catalogue No. 64EF4PEG). Cells are plated in 96-well tissue-culture treated plate in appropriate growth medium (90 μL). Compounds (10×) are diluted using 3-fold serial dilutions in cell culture medium and added to cells. Plates are incubated for 2 hrs at 37° C. The cell supernatant is carefully removed either by aspirating supernatant or by flicking the plate. Immediately 50 μL of supplemented lysis buffer (1×) is added and incubated for at least 30 minutes at room temperature under shaking. After homogenization by pipeting up and down, 16 μL of cell lysate is transferred from the 96-well cell-culture plate to a 384-well small volume white plate. 4 μL of premixed antibody solutions (vol/vol) is prepared in the detection buffer and added. The plate is covered with a plate sealer and incubated overnight at room temperature. The fluorescence emissions at two different wavelengths are read (665 nm and 620 nm) on a Wallac Victor2. Emission ratios are converted into percent inhibitions and imported into GraphPad Prism software. […] IC50 values are determined using a nonlinear regression model available in GraphPad Prism 5.
Background: Time-resolved FRET reads energy transfer from a long-lived donor to a nearby acceptor.

For assay [2], the target named is MNK1 (Homo sapiens (Human), UniProt Q9BUB5). In words: MNK Biochemical Enzymatic Assay (ADP-Glo), MNK1. As for the experimental part: (§1) Compounds are screened for MNK inhibition using the ADP-Glo kinase assay kit (Promega, catalogue No. V9101). All kinase reactions are performed in Reaction Buffer E (15 mM HEPES pH7.4, 20 mM NaCl, 1 mM EGTA, 10 mM MgCl2, 0.1 mg/ml BGG, and 0.02% Tween-20). […] Final DMSO concentration in each reaction is 1%.
MNK1, sequence (Q9BUB5 whole entry): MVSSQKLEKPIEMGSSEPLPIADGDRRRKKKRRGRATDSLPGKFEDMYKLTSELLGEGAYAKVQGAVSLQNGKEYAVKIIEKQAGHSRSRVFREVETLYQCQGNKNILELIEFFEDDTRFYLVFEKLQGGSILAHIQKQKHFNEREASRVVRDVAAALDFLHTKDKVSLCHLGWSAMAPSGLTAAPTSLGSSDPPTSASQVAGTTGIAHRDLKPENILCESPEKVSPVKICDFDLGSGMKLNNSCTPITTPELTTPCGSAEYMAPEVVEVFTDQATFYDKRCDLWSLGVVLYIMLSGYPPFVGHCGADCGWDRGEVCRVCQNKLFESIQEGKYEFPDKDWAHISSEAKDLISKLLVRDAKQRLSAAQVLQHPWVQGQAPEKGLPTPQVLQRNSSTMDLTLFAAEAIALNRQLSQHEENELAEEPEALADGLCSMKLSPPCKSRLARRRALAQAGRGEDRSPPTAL
(§2) Kinase reactions are carried out in 96-well half-area white flat-bottom polystyrene plates in a final volume of 25 μl. MNK1/2 enzymes are pre-incubated with compound and peptide substrate for 5 minutes prior to the addition of ATP. After the addition of ATP, kinase reactions are incubated at room temperature for 40 minutes. Reactions are subsequently stopped by the addition of 25 μl of ADP-Glo Reagent and incubating for an additional 40 minutes. The final luminescent signal used for kinase activity readout is produced by the addition of 45 μl of Kinase Detection Reagent (ADP-Glo kit, Promega) and incubating for 40 minutes.

Assay [3] concerns the target MNK2 (Homo sapiens (Human), UniProt Q9HBH9). In words: MNK Biochemical Enzymatic Assay (ADP-Glo), MNK2. To be noted: 3 nM recombinant MNK2, 50 μM substrate peptide, 10 μM ATP. As for the experimental part:
as §1, §2
Background: In ADP-Glo the light output rises with the ADP produced.

[4] abbreviates: 10 nM recombinant MNK1, 100 μM substrate peptide, 300 μM ATP, read-out: IC50 Mnk1.

MNK2, sequence (Q9HBH9 whole entry): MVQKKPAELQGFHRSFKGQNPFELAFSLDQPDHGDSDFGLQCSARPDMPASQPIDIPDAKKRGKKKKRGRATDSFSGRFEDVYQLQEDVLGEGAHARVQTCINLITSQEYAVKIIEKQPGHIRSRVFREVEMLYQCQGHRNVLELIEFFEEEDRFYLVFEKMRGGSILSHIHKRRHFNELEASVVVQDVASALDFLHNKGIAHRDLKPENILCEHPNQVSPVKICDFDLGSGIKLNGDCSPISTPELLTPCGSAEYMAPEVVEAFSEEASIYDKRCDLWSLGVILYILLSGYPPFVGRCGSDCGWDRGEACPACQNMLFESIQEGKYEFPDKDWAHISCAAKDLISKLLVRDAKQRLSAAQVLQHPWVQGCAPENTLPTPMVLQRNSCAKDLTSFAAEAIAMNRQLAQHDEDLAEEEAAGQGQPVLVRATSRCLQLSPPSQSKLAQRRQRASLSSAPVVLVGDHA

Take `CC(=O)Nc1cc(Nc2ccc3c(c2)CNC3=O)ncn1` [Cpd. No. 11, N-(6-((1-oxoisoindolin-5-yl)amino)pyrimidin-4-yl)acetamide]: the values for the pIC50 in assay [1], in assay [2] (setting [4]) and in assay [3] were 4.00 to 6.00, above 8.00 and 7.00 to 8.00, respectively.
For `CC1Cc2cc(Nc3ccncn3)ccc2C(=O)N1` (stereo not shown) [Cpd. No. 23, 3-methyl-6-(pyrimidin-4-ylamino)-3,4-dihydroisoquinolin-1(2H)-one] the same measures were 4.00 to 6.00, 5.00 to 7.00 and 7.00 to 8.00.
For the compound `CC1NC(=O)c2cnc(Nc3ccnc(NC(=O)C4CC4)c3)cc21` (stereo not shown) [Cpd. No. 42, N-(4-((1-methyl-3-oxo-2,3-dihydro-1H-pyrrolo[3,4-c]pyridin-6-yl)amino)pyridin-2-yl)cyclopropanecarboxamide], the pIC50 was 4.00 to 6.00 in assay [1], above 8.00 in assay [2] (setting [4]) and above 8.00 in assay [3].
For `CC1NC(=O)c2ccc(Nc3cc(NC(=O)C4CC4)ncn3)cc21` (stereo not shown) [Cpd. No. 17, N-(6-((3-methyl-1-oxoisoindolin-5-yl)amino)pyrimidin-4-yl)cyclopropanecarboxamide], the negative-log IC50 (pIC50) in assay [1] was 6.00 to 7.30; in assay [2] (setting [4]) it was above 8.00; in assay [3] it was above 8.00.
Take `CC1NC(=O)c2ccc(Nc3ncnc4c3CCN4)cc21` (stereo not shown) [Cpd. No. 39, 5-(6,7-dihydro-5H-pyrrolo[2,3-d]pyrimidin-4-ylamino)-3-methyl-isoindolin-1-one]: the pIC50 is 4.00 to 6.00 in assay [1], 7.00 to 8.00 in assay [2] (setting [4]) and 5.00 to 7.00 in assay [3].
For `CC1NC(=O)c2ccc(Nc3ccncn3)cc21` (stereo not shown) [Cpd. No. 8, 3-methyl-5-(pyrimidin-4-ylamino)isoindolin-1-one] the same measures were 4.00 to 6.00, 7.00 to 8.00 and 7.00 to 8.00.
For `CC1(C)NC(=O)c2c(Cl)cc(Nc3cc(N)ncn3)cc21` [Cpd. No. 43, 5-((6-aminopyrimidin-4-yl)amino)-7-chloro-3,3-dimethylisoindolin-1-one] the same measures were above 7.30, above 8.00 and above 8.00.
Consider `O=C1NCCc2cc(Nc3ccncn3)ccc21` [Cpd. No. 10, 6-(pyrimidin-4-ylamino)-3,4-dihydroisoquinolin-1(2H)-one], for which the values for the pIC50 in assay [1], in assay [2] (setting [4]) and in assay [3] were 4.00 to 6.00, 7.00 to 8.00 and 7.00 to 8.00, respectively.
On to `CC1CC(=O)c2ccc(Nc3cc(NC(=O)C4CC4)ncn3)cc21` (stereo not shown) [Cpd. No. 19, N-(6-((3-methyl-1-oxo-2,3-dihydro-1H-inden-5-yl)amino)pyrimidin-4-yl)cyclopropanecarboxamide], for which the pIC50 in assay [1] is 6.00 to 7.30; in assay [2] (setting [4]), above 8.00; in assay [3], 7.00 to 8.00.
Take `O=C1NCc2cc(Nc3ccncn3)ccc21` [Cpd. No. 3, 5-(pyrimidin-4-ylamino)isoindolin-1-one]: in assay [2] (setting [4]), the pIC50 was 5.00 to 7.00.
Consider `CC1CNC(=O)c2ccc(Nc3ccncn3)cc21` (stereo not shown) [Cpd. No. 22, 4-methyl-6-(pyrimidin-4-ylamino)-3,4-dihydroisoquinolin-1(2H)-one], for which the pIC50 in assay [1] is 4.00 to 6.00; in assay [2] (setting [4]), 5.00 to 7.00; in assay [3] it was 7.00 to 8.00.
In the case of `O=C1NCc2cc(Nc3ncnc4[nH]cnc34)ccc21` [Cpd. No. 1, 5-((9H-purin-6-yl)amino)isoindolin-1-one], in assay [2] (setting [4]), the pIC50 was 7.00 to 8.00.
`Cn1cc(Nc2cc(Nc3ccc4c(c3)CNC4=O)ncn2)cn1` [Cpd. No. 6, 5-((6-((1-methyl-1H-pyrazol-4-yl)amino)pyrimidin-4-yl)amino)isoindolin-1-one] gave a pIC50 in assay [2] of 7.00 to 8.00.
As for `CC1NC(=O)c2ccc(Nc3ccnc(NC(=O)C4CC4)c3)cc21` (stereo not shown) [Cpd. No. 24, N-(4-((3-methyl-1-oxoisoindolin-5-yl)amino)pyridin-2-yl) cyclopropane carboxamide], the values for the pIC50 in assay [1], in assay [2] (setting [4]) and in assay [3] were 6.00 to 7.30, above 8.00 and 5.00 to 7.00, respectively.
Take `O=C1NC(c2ccsc2)c2cc(Nc3ccncn3)ccc21` (stereo not shown) [Cpd. No. 37, 5-(pyrimidin-4-ylamino)-3-(thiophen-3-yl)isoindolin-1-one]: the pIC50 in assay [2] (setting [4]) and in assay [3] was above 8.00 in each case.
For `O=C1NCc2cc(Nc3cc(NC(=O)C4CC4)ncn3)ccc21` [Cpd. No. 12, N-(6-((1-oxoisoindolin-5-yl)amino)pyrimidin-4-yl)cyclopropanecarboxamide], the pIC50 is 6.00 to 7.30 in assay [1], above 8.00 in assay [2] (setting [4]) and above 8.00 in assay [3].
For the compound `CC1(C)NC(=O)c2c(Cl)cc(Nc3ccncn3)cc21` [Cpd. No. 36, 7-chloro-3,3-dimethyl-5-(pyrimidin-4-ylamino)isoindolin-1-one], the pIC50 is 6.00 to 7.30 in assay [1], above 8.00 in assay [2] (setting [4]) and above 8.00 in assay [3].
For the compound `CN1Cc2cc(Nc3ncnc4[nH]cnc34)ccc2C1=O` [Cpd. No. 2, 5-((9H-purin-6-yl)amino)-2-methylisoindolin-1-one], the pIC50 in assay [2] (setting [4]) was 7.00 to 8.00.
As to `CC1NC(=O)c2c(Cl)cc(Nc3ccncn3)cc21` (stereo not shown) [Cpd. No. 35, 7-chloro-3-methyl-5-(pyrimidin-4-ylamino)isoindolin-1-one], the pIC50 is 6.00 to 7.30 in assay [1], above 8.00 in assay [2] (setting [4]) and above 8.00 in assay [3].
For the compound `Cc1cc(Nc2ccncn2)cc2c1C(=O)NC2C` (stereo not shown) [Cpd. No. 33, 3,7-dimethyl-5-(pyrimidin-4-ylamino)isoindolin-1-one], the pIC50 is 4.00 to 6.00 in assay [1], 7.00 to 8.00 in assay [2] (setting [4]) and 7.00 to 8.00 in assay [3].
For the compound `CC(C)C1NC(=O)c2ccc(Nc3ccncn3)cc21` (stereo not shown) [Cpd. No. 13, 3-isopropyl-5-(pyrimidin-4-ylamino)isoindolin-1-one], the pIC50 is 4.00 to 6.00 in assay [1], 7.00 to 8.00 in assay [2] (setting [4]) and 7.00 to 8.00 in assay [3].
Regarding `CC1NC(=O)c2ccc(Nc3ncnc4c3OCCN4)cc21` (stereo not shown) [Cpd. No. 38, 5-(7,8-dihydro-6H-pyrimido[5,4-b][1,4]oxazin-4-ylamino)-3-methyl-isoindolin-1-one], the results for the pIC50 in assay [1], in assay [2] (setting [4]) and in assay [3] were 4.00 to 6.00, 7.00 to 8.00 and 5.00 to 7.00, respectively.
Consider `O=C1NCc2cc(Nc3cc(Cl)ncn3)ccc21` [Cpd. No. 4, 5-((6-chloropyrimidin-4-yl)amino)isoindolin-1-one], for which the pIC50 in assay [2] (setting [4]) was 5.00 to 7.00.
With `CC1(C)NC(=O)c2ccc(Nc3ccncn3)cc21` [Cpd. No. 15, 3,3-dimethyl-5-(pyrimidin-4-ylamino)isoindolin-1-one], the pIC50 in assay [1] is 4.00 to 6.00; in assay [2] (setting [4]), 5.00 to 7.00; in assay [3], 7.00 to 8.00.

The pIC50 is the IC50 on a negative log10 scale, so that one unit is a factor of ten.
